Measurements taken from US4421912A, “Cephalosporin derivatives” (Takeda Chemical Industries, Ltd., priority 1973, dated 1983).
In brackets after ≈: the same amount, converted by molar mass. Like-named read-outs stand apart in the source and are kept apart here.

Columns and labels:
Experiment in all cases: Antibacterial spectra, agar dilution method
Format in all cases: cell-based
[1] = test system: P. morganii Eb53; conditions: Morganella morganii
Source text: (§1) (mcg/ml, agar dilution method)
(§2) (mcg./ml., agar dilution method)

[2] = test system: E. coli T-7; conditions: Escherichia coli
Source text: (§3) |(mcg./ml., agar dilution method)

[3] = test system: P. vulgaris IFO 3988; conditions: Proteus vulgaris, IFO3988; P. vulgaris IFO 3988; agar dilution method; Table 11; read-out: Antibacterial spectra
Source text: as §3

[4] = test system: K. pneumoniae DT; conditions: Klebsiella pneumoniae
[5] = test system: E. coli 0-111
Source text: (§4) (mcg/ml., agar dilution method)
as §4, §1, §2

[6] = test system: S. aureus 1840
Source text: as §4, §4, §1, §2

[7] = test system: S. aureus 209P; conditions: for MIC: Staphylococcus aureus, 209P
Source text: as §4, §4, §1, §2

[8] = test system: E. coli NIHJ JC-2; conditions: Escherichia coli
Source text: as §4, §4, §1, §2

[9] = P. morganii Eb53, agar dilution method, Table 11, read-out: Antibacterial spectra
[10] = T7, E. coli T-7, agar dilution method, Table 11, read-out: Antibacterial spectra
[11] = Escherichia coli, 0111, E. coli 0-111, Table 11
[12] = Staphylococcus aureus, 1840, read-out: Antibacterial spectra, S. aureus 1840, Table 11
[13] = read-out: Antibacterial spectra, S. aureus 209P, Table 11
[14] = NIHJJC2, read-out: Antibacterial spectra, E. coli NIHJ JC-2, Table 11
[15] = T7, read-out: Antibacterial spectra
[16] = NIHJJC2, E. coli NIHJ JC-2, Table 11, read-out: Antibacterial spectra
[17] = Escherichia coli, 0111, E. coli 0-111, tables in the Examples
[18] = Staphylococcus aureus, 1840, read-out: Antibacterial spectra, S. aureus 1840, tables in the Examples
[19] = read-out: Antibacterial spectra, S. aureus 209P, tables in the Examples

Row | SMILES | MIC [3] [µg/mL] | MIC ([4]; Table 11) [µg/mL] | MIC [5, 11] [µg/mL] | MIC [6, 12] [µg/mL] | MIC [7, 13] [µg/mL] | MIC [8, 14] [µg/mL] | MIC [8, 16] [µg/mL] | other results
1 | Nc1nc(CC(=O)NC2C(=O)N3C(C(=O)O)=C(CSc4nnc(N)s4)CSC23)cs1 (stereo not drawn) [Compound 4] | 0.2 (≈ 0.412 µM) | 0.2 (≈ 0.412 µM) | 0.1 (≈ 0.206 µM) | 0.78 (≈ 1.61 µM) | 0.2 (≈ 0.412 µM) | 0.78 (≈ 1.61 µM) | – | MIC [1, 9]: 50 µg/mL (≈ 103 µM); MIC [2, 10]: 100 µg/mL (≈ 206 µM)
2 | Nc1nc(CC(=O)NC2C(=O)N3C(C(=O)[O-])=C(CSc4nnc(SCCO)s4)CS[C@H]23)cs1.[Na+] (stereo partly drawn) [Compound 6, sodium 7-[2-(2-aminothiazol-4-yl)acetamido]-3-[2-(2-hydroxyethylthio)1,3,4-thiadiazol-5-yl)thiomethyl-3-cephem-4-carboxylate] | 0.39 | ≤ 0.2 | ≤ 0.2 | 0.78 | ≤ 0.2 | 0.78 | – | MIC ([1]; EB53, read-out: Antibacterial spectra): 6.25 µg/mL; MIC [2, 15]: 12.5 µg/mL
3 | Cc1nnc(SCC2=C(C(=O)O)N3C(=O)C(NC(=O)Cc4csc(N)n4)C3SC2)o1 (stereo not drawn) [Compound 38] | – | 0.39 (≈ 0.832 µM) | 0.39 (≈ 0.832 µM) | 0.78 (≈ 1.66 µM) | 0.39 (≈ 0.832 µM) | – | 1.56 (≈ 3.33 µM) | MIC [1, 9]: 25 µg/mL (≈ 53.4 µM)
4 | Nc1nc(CC(=O)NC2C(=O)N3C(C(=O)O)=C(CSc4nnc[nH]4)CSC23)cs1 (stereo not drawn) [Compound 41] | – | 0.2 (≈ 0.441 µM) | 0.78 (≈ 1.72 µM) | 0.78 (≈ 1.72 µM) | 0.39 (≈ 0.86 µM) | 0.78 (≈ 1.72 µM) | – | MIC [1, 9]: 25 µg/mL (≈ 55.1 µM)
5 | Cn1ccnc1SCC1=C(C(=O)O)N2C(=O)C(NC(=O)Cc3csc(N)n3)C2SC1 (stereo not drawn) [Compound 44] | 0.39 (≈ 0.836 µM) | 0.39 (≈ 0.836 µM) | 0.39 (≈ 0.836 µM) | 1.56 (≈ 3.34 µM) | 0.39 (≈ 0.836 µM) | 0.78 (≈ 1.67 µM) | – | MIC [2, 15]: 6.25 µg/mL (≈ 13.4 µM)
6 | Nc1nc(CC(=O)NC2C(=O)N3C(C(=O)O)=C(CSc4nnc(C(F)(F)F)s4)CSC23)cs1 (stereo not drawn) [Compound 45] | 0.78 (≈ 1.45 µM) | 0.78 (≈ 1.45 µM) | 0.78 (≈ 1.45 µM) | 0.78 (≈ 1.45 µM) | ≤ 0.2 | – | 3.13 (≈ 5.81 µM) | MIC [2, 10]: 25 µg/mL (≈ 46.4 µM)
7 | Cc1csc(SCC2=C(C(=O)O)N3C(=O)C(NC(=O)Cc4csc(N)n4)C3SC2)n1 (stereo not drawn) [Compound 47] | 0.39 (≈ 0.806 µM) | 0.39 (≈ 0.806 µM) | 0.78 (≈ 1.61 µM) | 0.78 (≈ 1.61 µM) | ≤ 0.2 | – | 1.56 (≈ 3.23 µM) | MIC [2, 15]: 12.5 µg/mL (≈ 25.8 µM)
8 | Cc1nnc(SCC2=C(C(=O)O)N3C(=O)C(NC(=O)Cc4csc(=O)[nH]4)[C@H]3SC2)s1 (stereo partly drawn) [Compound 55, 7-[2-(2-oxo-4-thiazolin-4-yl)acetamido]-3-(5-methyl-1,3,4-thiadiazol-2-yl)thiomethyl-3-cephem-4-carboxylic acid] | – | 1.56 (≈ 3.21 µM) | 0.78 (≈ 1.61 µM) | 0.78 (≈ 1.61 µM) | 0.2 (≈ 0.412 µM) | – | 1.56 (≈ 3.21 µM) | –
9 | Cn1nnnc1SCC1=C(C(=O)O)N2C(=O)C(NC(=O)Cc3csc(=S)[nH]3)C2SC1 (stereo not drawn) [Compound 64] | – | < 0.78 | 1.56 (≈ 3.21 µM) | 1.56 (≈ 3.21 µM) | < 0.78 | – | – | –
10 | Cn1nnnc1SCC1=C(C(=O)O)N2C(=O)C(NC(=O)Cc3csc(=O)[nH]3)[C@H]2SC1 (stereo partly drawn) [Example 2, 7-[2-(2-oxo-4-thiazolin-4-yl)acetamido]-3-(1-methyltetrazol-5-yl)thiomethyl-3-cephem-4-carboxylic acid] | – | – | – | – | – | – | – | MIC ([4]; tables in the Examples): < 0.78 µg/mL; MIC [5, 17]: < 0.78 µg/mL; MIC [6, 18]: < 0.78 µg/mL; MIC [7, 19]: < 0.78 µg/mL; MIC ([8]; NIHJJC2, read-out: Antibacterial spectra, E. coli NIHJ JC-2, tables in the Examples): < 0.78 µg/mL
11 | O=C(Cc1csc(=O)[nH]1)NC1C(=O)N2C(C(=O)O)=C(CSc3nncs3)CS[C@H]12 (stereo partly drawn) [Example 4, 7-[2-(2-oxo-4-thiazolin-4-yl)acetamido]-3-(1,3,4-thiadiazol-2-yl)thiomethyl-3-cephem-4-carboxylic acid] | – | – | – | – | – | – | – | MIC ([4]; tables in the Examples): 1.56 µg/mL (≈ 3.31 µM); MIC [5, 17]: 1.56 µg/mL (≈ 3.31 µM); MIC [6, 18]: < 0.78 µg/mL; MIC [7, 19]: < 0.78 µg/mL
12 | CC(=O)OCC1=C(C(=O)[O-])N2C(=O)C(NC(=O)Cc3csc(=S)[nH]3)[C@H]2SC1.[Na+] (stereo partly drawn) [Example 21, sodium 7-[2-(2-thioxo-4-thiazolin-4-yl)-acetamido]-3-acetoxymethyl-3-cephem-4-carboxylate] | – | – | – | – | – | – | – | Antibacterial spectra ([6]; S. aureus 1840, tables in the Examples): 1.56 µg/mL; Antibacterial spectra ([7]; S. aureus 209P, tables in the Examples): < 0.78 µg/mL
